Results on 45 compounds are retold here after patent publication US20250066350A1, “AROMATIC HETEROCYCLE-SUBSTITUTED COMPOUNDS, AND PREPARATION METHOD THEREFOR AND USE THEREOF” (Innovstone Therapeutics Limited, priority 2021, published 2025).

Each structure is given as a SMILES string. Where only a bound is given, the exact number is not on record here.

Sequence of ATR enzyme (Q13535 whole entry): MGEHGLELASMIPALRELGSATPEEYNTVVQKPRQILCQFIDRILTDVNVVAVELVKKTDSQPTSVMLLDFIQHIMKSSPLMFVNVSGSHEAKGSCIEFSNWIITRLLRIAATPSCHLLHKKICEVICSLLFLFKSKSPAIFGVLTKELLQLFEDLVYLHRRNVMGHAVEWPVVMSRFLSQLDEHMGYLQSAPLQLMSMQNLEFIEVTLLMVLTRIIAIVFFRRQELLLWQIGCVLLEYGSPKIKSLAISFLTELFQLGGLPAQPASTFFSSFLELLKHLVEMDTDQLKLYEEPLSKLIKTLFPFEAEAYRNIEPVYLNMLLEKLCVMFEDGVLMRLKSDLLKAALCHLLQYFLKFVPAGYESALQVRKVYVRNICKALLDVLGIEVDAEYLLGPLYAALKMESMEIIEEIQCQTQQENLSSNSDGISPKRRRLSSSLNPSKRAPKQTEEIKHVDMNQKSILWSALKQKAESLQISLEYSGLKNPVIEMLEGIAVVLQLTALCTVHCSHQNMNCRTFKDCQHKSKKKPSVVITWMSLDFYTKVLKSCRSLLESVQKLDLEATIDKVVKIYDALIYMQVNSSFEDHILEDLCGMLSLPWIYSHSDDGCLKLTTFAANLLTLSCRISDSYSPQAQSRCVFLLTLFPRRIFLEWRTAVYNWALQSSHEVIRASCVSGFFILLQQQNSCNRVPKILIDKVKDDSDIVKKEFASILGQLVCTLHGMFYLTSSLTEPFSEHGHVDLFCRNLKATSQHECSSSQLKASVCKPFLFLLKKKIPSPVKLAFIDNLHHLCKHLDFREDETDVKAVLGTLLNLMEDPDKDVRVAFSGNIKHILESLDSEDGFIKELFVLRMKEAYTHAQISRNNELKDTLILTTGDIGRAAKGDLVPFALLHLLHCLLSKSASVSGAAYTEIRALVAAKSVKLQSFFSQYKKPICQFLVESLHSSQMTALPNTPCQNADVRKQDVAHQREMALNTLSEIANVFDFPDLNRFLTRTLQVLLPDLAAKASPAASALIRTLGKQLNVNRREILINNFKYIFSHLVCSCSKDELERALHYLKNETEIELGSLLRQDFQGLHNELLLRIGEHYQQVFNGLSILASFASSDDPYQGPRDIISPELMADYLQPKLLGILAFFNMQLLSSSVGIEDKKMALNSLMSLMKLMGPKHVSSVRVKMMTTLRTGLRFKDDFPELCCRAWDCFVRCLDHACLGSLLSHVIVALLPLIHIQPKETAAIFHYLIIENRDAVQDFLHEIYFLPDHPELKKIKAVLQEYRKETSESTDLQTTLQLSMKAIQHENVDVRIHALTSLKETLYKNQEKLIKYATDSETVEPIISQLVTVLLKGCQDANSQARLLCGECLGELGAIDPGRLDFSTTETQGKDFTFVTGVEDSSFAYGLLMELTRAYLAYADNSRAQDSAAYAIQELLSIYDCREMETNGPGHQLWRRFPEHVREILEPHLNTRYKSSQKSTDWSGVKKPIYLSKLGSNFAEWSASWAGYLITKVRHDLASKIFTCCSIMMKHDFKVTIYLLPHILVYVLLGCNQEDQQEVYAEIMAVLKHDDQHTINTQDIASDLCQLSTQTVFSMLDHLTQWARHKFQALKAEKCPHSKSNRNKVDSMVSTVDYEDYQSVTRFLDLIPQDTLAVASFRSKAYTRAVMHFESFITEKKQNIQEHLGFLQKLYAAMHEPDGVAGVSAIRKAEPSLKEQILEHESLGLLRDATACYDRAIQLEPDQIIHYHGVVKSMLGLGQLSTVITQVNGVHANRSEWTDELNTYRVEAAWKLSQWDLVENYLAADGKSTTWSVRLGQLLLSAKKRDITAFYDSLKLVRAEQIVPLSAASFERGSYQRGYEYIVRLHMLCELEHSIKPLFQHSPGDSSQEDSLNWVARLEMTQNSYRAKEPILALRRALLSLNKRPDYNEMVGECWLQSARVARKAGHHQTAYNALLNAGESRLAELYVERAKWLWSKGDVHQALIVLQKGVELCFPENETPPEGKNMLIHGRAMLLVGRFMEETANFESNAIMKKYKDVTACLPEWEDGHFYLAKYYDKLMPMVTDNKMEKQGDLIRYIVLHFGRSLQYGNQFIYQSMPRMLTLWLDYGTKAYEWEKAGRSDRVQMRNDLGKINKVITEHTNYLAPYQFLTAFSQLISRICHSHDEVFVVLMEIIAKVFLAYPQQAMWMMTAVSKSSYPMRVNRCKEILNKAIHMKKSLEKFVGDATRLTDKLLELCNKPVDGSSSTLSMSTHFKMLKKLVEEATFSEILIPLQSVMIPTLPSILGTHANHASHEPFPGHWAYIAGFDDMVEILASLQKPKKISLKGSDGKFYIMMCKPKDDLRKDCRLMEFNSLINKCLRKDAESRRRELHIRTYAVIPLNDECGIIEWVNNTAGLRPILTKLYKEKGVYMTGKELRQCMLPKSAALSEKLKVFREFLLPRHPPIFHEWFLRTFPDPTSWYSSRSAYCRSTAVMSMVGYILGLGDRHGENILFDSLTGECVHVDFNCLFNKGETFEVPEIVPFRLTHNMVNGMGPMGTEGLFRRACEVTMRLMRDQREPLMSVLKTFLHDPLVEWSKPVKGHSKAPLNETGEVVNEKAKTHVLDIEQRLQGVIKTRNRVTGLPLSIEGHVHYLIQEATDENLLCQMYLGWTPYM
Sequence of ATR enzyme (Q8WXE1 whole entry partner): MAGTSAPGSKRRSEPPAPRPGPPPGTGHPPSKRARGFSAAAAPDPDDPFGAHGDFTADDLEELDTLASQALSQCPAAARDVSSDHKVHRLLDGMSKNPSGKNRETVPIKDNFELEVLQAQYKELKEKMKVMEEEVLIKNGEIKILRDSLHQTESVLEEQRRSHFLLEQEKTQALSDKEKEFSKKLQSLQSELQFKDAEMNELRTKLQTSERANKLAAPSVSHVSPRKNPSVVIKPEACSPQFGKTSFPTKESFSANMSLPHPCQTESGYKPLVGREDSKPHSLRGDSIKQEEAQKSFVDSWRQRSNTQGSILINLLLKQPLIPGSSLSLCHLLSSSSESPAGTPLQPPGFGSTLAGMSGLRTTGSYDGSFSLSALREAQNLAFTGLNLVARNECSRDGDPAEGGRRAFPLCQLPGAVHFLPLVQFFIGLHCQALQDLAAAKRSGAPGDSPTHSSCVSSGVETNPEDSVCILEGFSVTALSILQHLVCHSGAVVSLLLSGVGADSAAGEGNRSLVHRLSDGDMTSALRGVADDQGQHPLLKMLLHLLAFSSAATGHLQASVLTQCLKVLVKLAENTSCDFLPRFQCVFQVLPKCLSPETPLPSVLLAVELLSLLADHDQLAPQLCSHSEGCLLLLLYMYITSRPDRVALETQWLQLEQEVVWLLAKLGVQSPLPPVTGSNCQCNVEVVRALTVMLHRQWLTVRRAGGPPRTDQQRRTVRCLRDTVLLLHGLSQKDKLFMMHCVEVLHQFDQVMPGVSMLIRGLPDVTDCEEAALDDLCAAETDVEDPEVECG

The first assay addresses ATR enzyme (Homo sapiens (Human), UniProt Q13535). Nature of the assay: Inhibitory effect on ATR enzyme (HTRF, phospho-P53). The assay is classed as biochemical. The settings on record: 90 minutes incubation, 150 nM ATP final; read-out: IC50 for ATR enzyme inhibition. The protocol: Test Example 1. Inhibitory Effect of Compounds of the Present Invention on ATR Enzyme
The following method is used to determine the inhibitory effect of the compounds of the present invention on the ATR enzyme. The experimental method is briefly described as follows:
1. ATR enzyme (Eurofins Pharma Discovery Services, 14-953M)
2. GST-tagged P53 protein (Eurofins Pharma Discovery Services, 14-952M)
15 nM ATR enzyme, 80 nM P53 protein, 300 nM ATP (the final concentrations were 40 nM and 150 nM, respectively), and small molecule compounds of various concentrations (the final concentrations (nM) of the ten points were 2985.0, 895.5, 298.5, 110.56, 33.17, 11.06, 4.09, 1.23, 0.41 and 0.15, respectively, and the final dimethyl sulfoxide concentration was 0.498%) were mixed and incubated at room temperature for 90 minutes. 10 μL of 2× cocktail buffer was added to the mixture of ATR, compound and substrate in the assay plate (anti-phospho-p53-Eu and anti-GST-d2 were diluted in the assay buffer). The resulting mixture was centrifuged at 1000 rpm for 30 seconds, and incubated overnight at 4° C. in the dark (a total of 20 μl in each well). The FRET signal (endpoint) was measured in the Envision instrument (HTRF 665/612 ratio was calculated at 665 nm emission and 612 nm emission). Data were processed using GraphPad software.
The inhibitory activity of the compounds of the present invention on the ATR enzyme can be determined by the test described above, and the measured IC50 values are shown in Table 1.
`C[C@@H]1COCCN1c1cc(C#CC2(O)CCN(c3cccc(F)c3)CC2)c2cnn(-c3ccn[nH]3)c2n1` [Compound 12, (R)-1-(3-fluorophenyl)-4-((6-(3-methylmorpholinyl)-1-(1H-pyrazolyl-5-yl)-1H-pyrazolyl[3,4-b]pyridin-4-yl)ethynyl)piperidin-4-ol]: the IC50 lay in the range of 10 to 50 nM.
For the compound `C[C@@H]1COCCN1c1cc(C#CC2(O)CCC3(CCOCC3)CC2)c2cnn(-c3ccn[nH]3)c2n1` [Compound 14, (R)-9-((6-(3-methylmorpholinyl)-1-(1H-pyrazol-5-yl)-1H-pyrazole[3,4-b]pyridin-4-yl)ethynyl)-3-oxaspiro[5.5]undecan-9-ol], the IC50 was 10 to 50 nM.
Turning to `C#Cc1cc(N2CCOC[C@H]2C)nc2c1cnn2-c1cc[nH]n1` [Example 17], the IC50 is 10 to 50 nM.
On to `C[C@@H]1COCCN1c1cc(C#CCN(C)C)c2cnn(-c3cc[nH]n3)c2n1` [Example 18, (R)-N, N-Dimethyl-3-(6-(3-methylmorpholine)-1-(1H-pyrazol-3-yl)-1H-pyrazoline[3,4-b]pyridin-4-yl)propyl-2-yn-1-amine], for which the IC50 lay in the range of 10 to 50 nM.
Take `C[C@@H]1COCCN1c1cc(-c2ccc(N3C(=O)CCCC3CO)cc2)c2cnn(-c3cc[nH]n3)c2n1` (stereo partly drawn) [Example 60]: the IC50 is not above 10 nM.
In the case of `C[C@@H]1COCCN1c1cc(C#Cc2ccnc3[nH]ccc23)c2cnn(-c3cc[nH]n3)c2n1` [Example 77], the IC50 fell in the range of 10 to 50 nM.
With `C[C@@H]1COCCN1c1cc(C#Cc2c[nH]cn2)c2cnn(-c3cc[nH]n3)c2n1` [Example 78], the IC50 was not above 10 nM.
With `CC(=O)N1CCC(C#Cc2cc(N3CCOC[C@H]3C)nc3c2cnn3-c2cc[nH]n2)C1` (stereo partly drawn) [Example 80], the IC50 lay in the range of 10 to 50 nM.
Take `C[C@@H]1COCCN1c1cc(C#CC2(O)COC2)c2cnn(-c3cc[nH]n3)c2n1` [Example 84]: the IC50 was not above 10 nM.
On the same count and under the same terms, the same measure for `C[C@@H]1COCCN1c1cc(C#CC(=O)N2CC(O)C2)c2cnn(-c3cc[nH]n3)c2n1` [Example 86]: 10 to 50 nM.
`C[C@@H]1COCCN1c1cc(-c2ccc(NC(=O)CCO)cc2)c2cnn(-c3cc[nH]n3)c2n1` [Example 152]: the IC50 is not above 10 nM.
For the compound `C[C@@H]1COCCN1c1cc(-c2ccc(NC(=O)C3CNC3)cc2)c2cnn(-c3cc[nH]n3)c2n1` [Example 156], the IC50 was not above 10 nM.
Consider `Cc1cc(-c2cc(N3CCOC[C@H]3C)nc3c2cnn3-c2ccn[nH]2)cc(C)c1N(C)C(=O)c1ccncc1` [Example 184], for which the IC50 was not above 10 nM.
Regarding `C[C@@H]1COCCN1c1cc(-c2ccc(N(C)C(=O)N3CCCC3)cc2F)c2cnn(-c3cc[nH]n3)c2n1` [Example 192], the IC50 is not above 10 nM.
Turning to `C#CC1CC=C(c2cc(N3CCOC[C@H]3C)nc3c2cnn3-c2cc[nH]n2)CC1` (stereo partly drawn) [Example 201], the IC50 was not above 10 nM.
Regarding `C#CC1CCC(c2cc(N3CCOC[C@H]3C)nc3c2cnn3-c2ccn[nH]2)CC1` (stereo partly drawn) [Example 202, (R)-4-(4-(4-ethynylcyclohexyl)-1-(1H-pyrazol-5-yl)-1H-pyrazolo[3,4-b]pyridin-6-yl)-3-methylmorpholine], the IC50 was not above 10 nM.
As to `C[C@@H]1COCCN1c1cc(-c2ccc(N3CC4(CCN(Cc5ccccc5)C4)CC3=O)cc2)c2cnn(-c3cc[nH]n3)c2n1` (stereo partly drawn) [Example 203], the IC50 is not above 10 nM.
For the compound `C[C@@H]1COCCN1c1cc(C#CCN2CC3(CNC3)C2)c2cnn(-c3cc[nH]n3)c2n1` [Example 205], the IC50 lay in the range of 10 to 50 nM.
In the case of `C[C@@H]1COCCN1c1cc(C#CC2CCCOC2)c2cnn(-c3ccn[nH]3)c2n1` (stereo partly drawn) [Example 210], the IC50 is not above 10 nM.
`C[C@@H]1COCCN1c1cc(-c2ccc(N3CCCC3=O)cc2)c2cnn(-c3cc[nH]n3)c2n1` [Example 212]: the IC50 is not above 10 nM.
Turning to `CC(=O)Nc1ccccc1-c1cc(N2CCOC[C@H]2C)nc2c1cnn2-c1cc[nH]n1` [Example 220], the IC50 fell in the range of 10 to 50 nM.
For the compound `C[C@@H]1COCCN1c1cc(-c2ccc(N(C)C(=O)N3CCCC3)cc2)c2cnn(-c3cc[nH]n3)c2n1` [Example 223], the IC50 was not above 10 nM.
For the compound `C[C@@H]1COCCN1c1cc(-c2ccc3c(c2)CCCN3C(=O)c2cccnc2)c2cnn(-c3cc[nH]n3)c2n1` [Example 225], the IC50 was not above 10 nM.
With `C[C@@H]1COCCN1c1cc(-c2ccc(N(C)C(=O)N3CCCC3)nc2)c2cnn(-c3cc[nH]n3)c2n1` [Example 227], the IC50 was in the range of 10 to 50 nM.
On the same count and under the same terms, with `C[C@@H]1COCCN1c1cc(-c2ccc(NC(=O)N3CCCCC3)cc2)c2cnn(-c3cc[nH]n3)c2n1` [Example 229] the figure was not above 10 nM; with `C[C@@H]1COCCN1c1cc(-c2ccc(N(C)C(=O)N3CCCCC3)cc2)c2cnn(-c3cc[nH]n3)c2n1` [Example 230], 10 to 50 nM; with `C[C@@H]1COCCN1c1cc(-c2ccc(NC(=O)NC3CC4CCC(C3)N4)cc2)c2cnn(-c3cc[nH]n3)c2n1` (stereo partly drawn) [Example 231], not above 10 nM.
Same read-out and setting: the same measure for `C[C@@H]1COCCN1c1cc(-c2ccc(NC(=O)C34CC5CC(CC(C5)C3)C4)cc2)c2cnn(-c3cc[nH]n3)c2n1` [Example 232]: 10 to 50 nM; for `COc1cc(-c2cc(N3CCOC[C@H]3C)nc3c2cnn3-c2cc[nH]n2)ncc1NC(=O)N1CCCC1` [Example 247]: 10 to 50 nM.
For the compound `COc1cc(NC(=O)N2CCCC2)ncc1-c1cc(N2CCOC[C@H]2C)nc2c1cnn2-c1cc[nH]n1` [Example 248], the IC50 was 10 to 50 nM.
Take `C[C@@H]1COCCN1c1cc(-c2ccc(NC(=O)N3CCCC3)cn2)c2cnn(-c3cc[nH]n3)c2n1` [Example 249]: the IC50 was not above 10 nM.
As to `C[C@@H]1COCCN1c1cc(-c2cc(NC(=O)C3CC3)[nH]n2)c2cnn(-c3cc[nH]n3)c2n1` [Example 253], the IC50 fell in the range of 10 to 50 nM.
Turning to `C[C@@H]1COCCN1c1cc(N2CC(c3ccnn3C)C2)c2cnn(-c3cc[nH]n3)c2n1` [Example 266], the IC50 fell in the range of 10 to 50 nM.
As for `C[C@@H]1COCCN1c1cc(N2CC(c3ccn(C)n3)C2)c2cnn(-c3cc[nH]n3)c2n1` [Example 267], the IC50 was in the range of 10 to 50 nM.
As for `C[C@@H]1COCCN1c1cc(C2CN(C(=O)NC3CC3)C2)c2cnn(-c3cc[nH]n3)c2n1` [Example 268], the IC50 fell in the range of 10 to 50 nM.
Take `C[C@@H]1COCCN1c1cc(C2CN(c3ccnn3C)C2)c2cnn(-c3cc[nH]n3)c2n1` [Example 269]: the IC50 was not above 10 nM.
Consider `C#CC1CCC(O)(c2cc(N3CCOC[C@H]3C)nc3c2cnn3-c2cc[nH]n2)C1` (stereo partly drawn) [Example 270], for which the IC50 is not above 10 nM.

The next assay concerns SNU-601 cells. Briefly: SNU-601 cell proliferation experiment (CellTiter-Glo, intracellular ATP). The assay is classed as cell-based. Conditions: 120 h; SNU-601 human gastric cancer cells, 5 days; read-out: IC50 for inhibition of SNU-601 cell proliferation. Here is the method:
The following method is used to evaluate the inhibitory effect of the compounds of the present disclosure on SNU-601 cell proliferation according to the IC50 values by means of detecting the intracellular ATP content. The experimental method is briefly described as follows:
1. SNU-601, human gastric cancer tumor cells (Co-bioer, CBP60507)
SNU-601 cells were cultured in RPMI 1640 medium containing 10% FBS and passaged 2 to 3 times a week at a split ratio of 1:5 or 1:10. During passage, the cells were trypsinized and transferred to a centrifuge tube. The tube was centrifuged at 1000 rpm for 5 minutes, the supernatant medium was discarded, and fresh medium was added to resuspend the cells. 195 μL of cell suspension at a density of 5.128×10^3 cells/mL was added to a 96-well cell culture plate, and 200 μL of complete medium only was added to the periphery wells of the 96-well plate. The culture plate was incubated in an incubator for 24 hours (37° C., 5% CO2).
The sample to be tested was diluted to 2 mM with DMSO, diluted 3-fold serially to 10 concentrations. Blank and control wells were set. 10 μL of the solution containing the compound to be tested prepared in gradient concentrations was added to 50 μL of fresh medium. 5 μL of the above culture medium solution containing the compound was added to the culture plate. The culture plate was incubated in an incubator for 5 days (37° C., 5% CO2). 50 μL of CellTiter-Glo reagent was added to each well of the 96-well cell culture plate after discarding 100 μL/well, and the plate was shaken at room temperature in the dark for 10 min. The chemiluminescent signal values were read in PHERAstar, and data were processed using GraphPad software.
The inhibitory effect of the compounds of the present invention on SNU-601 cell proliferation can be determined by the test described above, and the measured IC50 values are shown in Table 3.
Turning to `C[C@@H]1COCCN1c1cc(-c2ccc(N3CC4CCC(O4)C3=O)cc2)c2cnn(-c3cc[nH]n3)c2n1` (stereo partly drawn) [Example 65], the IC50 fell in the range of 10 to 100 nM.
Regarding `CCC(CC)C(=O)Nc1ccc(-c2cc(N3CCOC[C@H]3C)nc3c2cnn3-c2cc[nH]n2)cc1` [Example 151], the IC50 fell in the range of 10 to 100 nM.
Take `C[C@@H]1COCCN1c1cc(-c2ccc(N3CCCCCC3=O)cc2)c2cnn(-c3cc[nH]n3)c2n1` [Example 153]: the IC50 was 10 to 100 nM.
Consider `C[C@@H]1COCCN1c1cc(-c2ccc(NC(=O)C3CCOCC3)cc2)c2cnn(-c3cc[nH]n3)c2n1` [Example 155], for which the IC50 fell in the range of 10 to 100 nM.
Turning to `C[C@@H]1COCCN1c1cc(-c2ccc(NC(=O)c3ccccc3)cc2)c2cnn(-c3cc[nH]n3)c2n1` [Example 163], the IC50 was 10 to 100 nM.
As for `C[C@@H]1COCCN1c1cc(-c2ccc(NC(=O)c3ccncn3)cc2)c2cnn(-c3cc[nH]n3)c2n1` [Example 165], the IC50 fell in the range of 10 to 100 nM.
Take `C[C@@H]1COCCN1c1cc(-c2ccc(N3CCCCC3=O)nc2)c2cnn(-c3cc[nH]n3)c2n1` [Example 167]: the IC50 lay within 10 to 100 nM.

Staying with this assay, now noted: SNU-601 human gastric cancer cells, 5 days; read-out: IC50 for inhibition of SNU-601 cell proliferation.
As to `C[C@@H]1COCCN1c1cc(C#CC2(C#N)CCCNC2)c2cnn(-c3cc[nH]n3)c2n1` (stereo partly drawn) [Example 82], the IC50 was in the range of 10 to 100 nM.
